The target of the experiment is 5-hydroxytryptamine receptor 1D (Bos taurus). The experiment in a line: Binding affinity against 5-hydroxytryptamine 1D receptor in calf caudate homogenates.

A word on the Ki: it is the dissociation constant of the complex between target and ligand, obtained from inhibition or displacement. Higher therefore signals weaker binding. As to `CN(C)CCc1c(C(=O)NCc2ccccc2)[nH]c2ccc(CCN3C(=O)CNC3=O)cc12`, the affinity, expressed as Ki, was 1.32 µM.

`CN(C)CCc1c(C(=O)NCc2ccccc2)[nH]c2ccc(CCN3C(=O)NC(C)(C)C3=O)cc12` gave an inhibition constant Ki of 3.8 µM.

These data come from BindingDB's records for doi:10.1021/jm9706325 (Monash University (Parkville Campus), 1999).
